Literature values in PubChem BioAssay AID1259409 (Chemical Carcinogenesis Research Information System (CCRIS), 2018).

Tested on: rodent chemically induced tumor inhibition, incidence and multiplicity
Experiment: CCRIS tumor inhibitor studies
Conditions: Dose [Inhibitor]: 0, Promoter: NONE USED

Compound: NC(=O)c1cccc(N)c1
- outcome (Carcinogen: N-NITROSOBIS(2-HYDROXYPROPYL)AMINE, 53609-64-6, 300 MG/KG 30 MIN AFTER EACH CARCINOGEN DOSE (STUDY DURATION: 35 WK), Route [Inhibitor]: INTRAPERITONEAL, Species: HAMSTER, Strain/Sex: SYRIAN/MALE, Target Tissue: Type of Lesion: BILE DUCT: CHOLANGIOCARCINOMA, Dose [Carcinogen]: 500 MG/KG IN 0.9% SALINE 1/WK FOR 5 WK): 0%, 7%
- outcome (Carcinogen: N-NITROSOBIS(2-HYDROXYPROPYL)AMINE, 53609-64-6, 300 MG/KG 30 MIN AFTER EACH CARCINOGEN DOSE (STUDY DURATION: 35 WK), Route [Inhibitor]: INTRAPERITONEAL, Species: HAMSTER, Strain/Sex: SYRIAN/MALE, Target Tissue: Type of Lesion: LIVER: HEPATOCELLULAR CARCINOMA, Dose [Carcinogen]: 500 MG/KG IN 0.9% SALINE 1/WK FOR 5 WK): 0%, 7%
- tumour outcome (control, treated, inhibition, significance) (Carcinogen: N-NITROSOBIS(2-HYDROXYPROPYL)AMINE, 53609-64-6, 300 MG/KG 30 MIN AFTER EACH CARCINOGEN DOSE (STUDY DURATION: 35 WK), Route [Inhibitor]: INTRAPERITONEAL, Species: HAMSTER, Strain/Sex: SYRIAN/MALE, Target Tissue: Type of Lesion: LUNG: ADENOCARCINOMA, Dose [Carcinogen]: 500 MG/KG IN 0.9% SALINE 1/WK FOR 5 WK): 8%, 0%, 100%, not calculated
- outcome (Carcinogen: N-NITROSOBIS(2-HYDROXYPROPYL)AMINE, 53609-64-6, 300 MG/KG 30 MIN AFTER EACH CARCINOGEN DOSE (STUDY DURATION: 35 WK), Route [Inhibitor]: INTRAPERITONEAL, Species: HAMSTER, Strain/Sex: SYRIAN/MALE, Target Tissue: Type of Lesion: LUNG: ADENOMA, Dose [Carcinogen]: 500 MG/KG IN 0.9% SALINE 1/WK FOR 5 WK): 0%, 7%
- tumour outcome (control, treated, inhibition, significance) (Carcinogen: N-NITROSOBIS(2-HYDROXYPROPYL)AMINE, 53609-64-6, 300 MG/KG 30 MIN AFTER EACH CARCINOGEN DOSE (STUDY DURATION: 35 WK), Route [Inhibitor]: INTRAPERITONEAL, Species: HAMSTER, Strain/Sex: SYRIAN/MALE, Target Tissue: Type of Lesion: PANCREAS: CARCINOMA, Dose [Carcinogen]: 500 MG/KG IN 0.9% SALINE 1/WK FOR 5 WK): 39%, 40%, -3%, not calculated
- outcome (Carcinogen: N-NITROSOBIS(2-HYDROXYPROPYL)AMINE, 53609-64-6, 600 MG/KG 30 MIN AFTER EACH CARCINOGEN DOSE (STUDY DURATION: 35 WK), Route [Inhibitor]: INTRAPERITONEAL, Species: HAMSTER, Strain/Sex: SYRIAN/MALE, Target Tissue: Type of Lesion: LIVER: HEPATOCELLULAR CARCINOMA, Dose [Carcinogen]: 500 MG/KG IN 0.9% SALINE 1/WK FOR 5 WK): 0%, 5%
- tumour outcome (control, treated, inhibition, significance) (Carcinogen: N-NITROSOBIS(2-HYDROXYPROPYL)AMINE, 53609-64-6, 600 MG/KG 30 MIN AFTER EACH CARCINOGEN DOSE (STUDY DURATION: 35 WK), Route [Inhibitor]: INTRAPERITONEAL, Species: HAMSTER, Strain/Sex: SYRIAN/MALE, Target Tissue: Type of Lesion: LUNG: ADENOCARCINOMA, Dose [Carcinogen]: 500 MG/KG IN 0.9% SALINE 1/WK FOR 5 WK): 8%, 0%, 100%, not calculated
- outcome (Carcinogen: N-NITROSOBIS(2-HYDROXYPROPYL)AMINE, 53609-64-6, 600 MG/KG 30 MIN AFTER EACH CARCINOGEN DOSE (STUDY DURATION: 35 WK), Route [Inhibitor]: INTRAPERITONEAL, Species: HAMSTER, Strain/Sex: SYRIAN/MALE, Target Tissue: Type of Lesion: LUNG: ADENOMA, Dose [Carcinogen]: 500 MG/KG IN 0.9% SALINE 1/WK FOR 5 WK): 0%, 5%
- tumour outcome (control, treated, inhibition, significance) (Carcinogen: N-NITROSOBIS(2-HYDROXYPROPYL)AMINE, 53609-64-6, 600 MG/KG 30 MIN AFTER EACH CARCINOGEN DOSE (STUDY DURATION: 35 WK), Route [Inhibitor]: INTRAPERITONEAL, Species: HAMSTER, Strain/Sex: SYRIAN/MALE, Target Tissue: Type of Lesion: PANCREAS: CARCINOMA, Dose [Carcinogen]: 500 MG/KG IN 0.9% SALINE 1/WK FOR 5 WK): 39%, 25%, 36%, not calculated

Compound: CCCCC1OC(=O)c2ccccc21 (centres undefined)
- tumour outcome (control, treated, inhibition, significance) (Carcinogen: BENZO[A]PYRENE, 50-32-8, 20 MG 3/WK FOR 4 WK ON DAYS OTHER THAN THE CARCINOGEN TREATMENT (STUDY DURATION: 20 WK), Route [Inhibitor]: GAVAGE, Species: MOUSE, Strain/Sex: STRAIN-A/FEMALE, Target Tissue: Type of Lesion: FORESTOMACH: TUMOR, Dose [Carcinogen]: 1 MG IN 0.2 ML COTTONSEED OIL 2/WK FOR 4 WK): 13/19 (68%), 6/20 (30%), 56%, p<0.005

Compound: S=C=NCCCCCc1ccccc1
- tumour outcome (control, treated, inhibition, significance) (Carcinogen: 4-(METHYLNITROSAMINO)-1-(3-PYRIDYL)-1-BUTANONE, 64091-91-4, 0.2 UMOL 1/D FOR 4 D ADMINISTERED PRIOR TO CARCINOGEN TREATMENT (STUDY DURATION: 116 D), Route [Inhibitor]: GAVAGE, Species: MOUSE, Strain/Sex: STRAIN A, Target Tissue: Type of Lesion: LUNG: ADENOMA, Dose [Carcinogen]: 10 UMOL ONCE 2 HR AFTER FINAL DOSE OF INHIBITOR): 100%, 100%, 0%, not significant
- tumour outcome (control, treated, inhibition, significance) (Carcinogen: 4-(METHYLNITROSAMINO)-1-(3-PYRIDYL)-1-BUTANONE, 64091-91-4, 1 UMOL 1/D FOR 4 D ADMINISTERED PRIOR TO CARCINOGEN TREATMENT (STUDY DURATION:116 D), Route [Inhibitor]: GAVAGE, Species: MOUSE, Strain/Sex: STRAIN A, Target Tissue: Type of Lesion: LUNG: ADENOMA, Dose [Carcinogen]: 10 UMOL ONCE 2 HR AFTER FINAL DOSE OF INHIBITOR): 100%, 53%, 47%, p<0.05
- tumour outcome (control, treated, inhibition, significance) (Carcinogen: 4-(METHYLNITROSAMINO)-1-(3-PYRIDYL)-1-BUTANONE, 64091-91-4, 5 UMOL 1/D FOR 4 D ADMINISTERED PRIOR TO CARCINOGEN TREATMENT (STUDY DURATION: 116 D), Route [Inhibitor]: GAVAGE, Species: MOUSE, Strain/Sex: STRAIN A, Target Tissue: Type of Lesion: LUNG: ADENOMA, Dose [Carcinogen]: 10 UMOL ONCE 2 HR AFTER FINAL DOSE OF INHIBITOR): 100%, 25%, 75%, p<0.05

Compound: CCCCCCCCCCCCO
- tumour outcome (control, treated, inhibition, significance) (Carcinogen: 4-(METHYLNITROSAMINO)-1-(3-PYRIDYL)-1-BUTANONE, 64091-91-4, 1 UMOL IN 0.1 ML CORN OIL ONCE 2 HR PRIOR TO CARCINOGEN DOSE (STUDY DURATION: 16 WK), Route [Inhibitor]: GAVAGE, Species: MOUSE, Strain/Sex: STRAIN-A/FEMALE, Target Tissue: Type of Lesion: LUNG: ADENOMA, Dose [Carcinogen]: 10 UMOL IN 0.1 ML SALINE ONCE): 100%, 100%, 0%, not significant
